From patent EP4427807A1, “N-BRIDGED DIAZOCINE ANALOGUES OF CARBAMAZEPINE TO CONTROL NEURONAL ACTIVITY WITH LIGHT AND APPLICATIONS THEREOF” (Fundació Institut de Bioenginyeria de Catalunya (IBEC), priority 2023, dated 2024)
Entries after “also recorded” stand apart in the source; their conditions may differ. Read-outs that look alike come from different tables or passages of the source.

How the values were obtained:
[1] = Quantification of photostationary states (PSS) by HPLC at the isosbestic point; format: physicochemical; conditions: for ratio between the two isomers: cis (Z) / ratio between the two isomers: trans (E): HPLC
Experimental: High-performance Liquid Chromatography (HPLC) analysis were performed with a Waters Alliance e2695 Separation Module paired with a Waters 2998 UV/vis Photodiode Array Detector (Diode array 190-800 nm) and a Waters AQUITY QDa Mass Detector (positive ionization ESI+). Samples were injected on a XSelect CSH C18 […] 4.6x50 mm analytical column with the following mobile phases, respectively called line A and B: water with formic acid 0.1% (v/v) and acetonitrile with formic acid 0.1% (v/v). The injections were eluted with the following method: flow 1.6 mL/min, gradient 0.00-4.50 min, 5-100% B; 4.50-5.00 min, 100-5% B.
(§1) The photochromic response was characterized by the absorption spectra after irradiation with LEDs at λ = 365 nm, 380 nm, 420 nm, 460 nm, 500 nm. The maximal changes in the spectra were associated to the optimal λ to isomerize from Z to E and vice versa. Resistance to photofatigue was tested by cycles of illuminations between the optimal λ. The kinetics of the spontaneous relaxation in the dark (time course of absorption at a fixed λ) was measured to quantify the relaxation lifetime by fitting the plots to an exponential decay curve. The UV-vis absorption analysis for the photochromic characterization has been carried out at room temperature. Stock solutions were prepared in the concentration of 10 mM in DMSO. The solutions used for the measurements were obtained by diluting the stock solutions in PBS at the desired final concentration (in the range of 30 µM and 50 µM). Finally, the photostationary states (PSS) were quantified using HPLC at the λ corresponding to the isosbestic point.
The quantification of photostationary states (PSS) has been measured by HPLC analysis. The peaks at the Diode Array have been detected and integrated at the wavelength corresponding to the isosbestic point.

[2] = Photochemical characterization by UV-vis absorption (photoisomerization, thermal relaxation in the dark, photofatigue); format: physicochemical
Excerpt: All reagents and solvents were purchased from Sigma-Aldrich and Cymit Quimica S.L. and were used without any further purification. Reactions were monitored by analytical thin layer chromatography (TLC) on commercial silica gel 60 F254 aluminum foils 20 x 20 cm (Merck). Spots were visualized under 254 or 365 nm UV lamp and/or with the use of an appropriate stain (ninidrine solution, Dragendorff reagent, alkaline potassium permanganate solution or phosphomolybdic acid solution 5% in ethanol). Compounds were purified by flash chromatography on PanReac Applichem silica gel 60 (40-63 µm) as stationary phase; the mobile phases are specified for each compound. All the UV/vis spectra and experiments were registered with Shimadzu UV-1800 UV-VIS spectrophotometer using quartz cuvettes (10 mm light path).
as §1, with “The” for “The photochromic response was characterized by the absorption spectra after irradiation with LEDs at λ = 365 nm, 380 nm, 420 nm, 460 nm, 500 nm. The”

[3] = tested on: primary hippocampal neurons; assay: Current clamp recording of action potential firing in cultured primary hippocampal neurons; format: cell-based, Sprague-Dawley rat; conditions: Rattus norvegicus, Hippocampal neuron
Experimental: Procedures were performed in accordance with the European guidelines for animal care and use in research and were approved by the Animal Experimentation Ethics Committee at the University of Barcelona. Sprague-Dawley rat pups (P 1-5) were sacrificed by decapitation, hippocampi were isolated and treated with 0.1% trypsin in HBSS (10 min, 37°C). Neurons were plated on Poly-D-Lysine (PDL)-coated 16 mm coverslips (0.5-1 x 10^5 cells) and incubated at 37°C, 5% CO2 for 1,5 hours (to allow cells adhesion) in MEM supplemented with heat-inactivated FBS (5%), heat-inactivated HS (5%), penstrep (10 Ul/ml), L-glutamine (2mM) and glucose (20mM). Cells were cultured in Neurobasal A medium, supplemented with B-27 (5%), penstrep (5 Ul/ml), glutaMAX (0,5x) and glucose (15mM). On DIV 3 cultured cells were treated with 1 µM of Ara-C to prevent proliferation of non-neuronal cells. 50% of the maintenance medium was exchanged every 4 days.
Whole-cell recordings were performed at room temperature using an EPC-10 amplifier (HEKA Elektronik, Germany) and Patch Master software (HEKA). […] Firing of primary hippocampal neurons was recorded in current clamp configuration. […]
Data was analyzed using Igor Pro 6.05 (WaveMatrics, USA) and Origin 8.0 (OriginLab, USA) software. […] Statistical difference between groups was evaluated with Mann-Whitney test and was considered significant at the value of P below 0.05.

[4] = tested on: zebrafish (Danio rerio) larvae; assay: Behavioural study (swimming activity) in zebrafish larvae under light cycles; format: in vivo
Experimental: Wild-type zebrafish embryos (Tupfel long-fin strain) were purchased from the animal facility of the Barcelona Biomedical Research Park (PRBB) and raised in darkness for 7 days at 28 °C in UV filtered tap water in Petri dishes (daily cleaned and refilled). Animal development was checked every 24 hours. Unhealthy or abnormal embryos and larvae were removed and euthanatized in tricaine methanosulfonate (400 mg/l). All experiments and procedures were conducted according to the European Directive 2010/63/EU.
Behavioral studies were conducted on wild-type zebrafish larvae at 7 days post-fertilization (dpf). Vehicle and compounds were added with a multichannel pipette to exclude differences related to a delay in the application of each solution. Movements were recorded and analyzed using the ZebraBox tracking system and the ZebraLab software (ViewPoint Life Science, France). On the morning of the test, 7-dpf larvae were moved into a new batch of fresh water and checked for motility capabilities and possible physical mutations. Larvae were then randomly divided into control and treatment groups. Each individual was placed in a separate well of a 96-well plate, each containing 200 µl of fresh UV filtered water and left undisturbed in the dark for 30 min to get acquainted with the new setting (habituation time). Afterwards, 100 µL of water were removed from each well and replaced with 100 µl of a double concentrated vehicle or treatment solution. At this point, the plate was inserted into the ZebraBox and the recording period started. Animals were exposed to controlled cycles of dark, 380 nm, 420 nm, 500 nm wavelengths or with a halogen lamp (warm white light), using the illumination protocols represented by coloured-shaded areas in their respective graphs (see figures). Illumination at 380, 420 and 500 nm was performed with a built-in array of 12 LEDs placed 12 cm away from the multiwell plate. The halogen lamp used was the Volpi Intralux 4000 (115 W). Light intensities, measured with a Newport 1916-C optical power meter coupled to a Newport 918D-SL-OD3R detector, were 0.21 mW·cm^-2 (380 nm), 2.43 mW·cm^-2 (420 nm) and 0.69 mW·cm^-2 (500 nm). All experiments were conducted between 12.00 and 15.00 pm (UTC+01:00).
Alterations of locomotor activity were determined by monitoring and measuring fast movements, swimming distances and duration of high-speed swimming. In particular, the dependent variables measured included: total distance travelled, distance travelled at ≤ 2 mm·s^-1, distance travelled at 2-6 mm·s^-1, distance travelled at ≥ 6 mm·s^-1, time spent moving, time spent freezing, and number of bursts. The arbitrary cut-off for motility (6 mm·s^-1) was chosen because no variance was found among the groups at lower speeds. Figures show distances travelled over 6 mm·s^-1 and total movements (addition of movements below cut-off high speed swimming) were not considered to limit the error of the video recording on minimal movements. Data were analysed by two-way ANOVA with Tukey's post-hoc test for statistical significance (GraphPad Prism 6).

[5] = after irradiation at 400 nm for 3 minutes, 374 nm
[6] = after irradiation at 500 nm for 3 minutes, 374 nm
[7] = benchtop dark condition, isosbestic wavelength 374 nm

Structure (SMILES): NC(=O)N1Cc2ccccc2/N=N\c2ccccc21 [compound of formula (II), (Z)-dibenzo[c,g][1,2,5]triazocine-11(12H)-carboxamide]
- ratio between the two isomers: cis (Z) [1, 5]: 49%
- ratio between the two isomers: trans (E) [1, 5]: 51%
- ratio between the two isomers: cis (Z) [1, 6]: ≥ 99%
- ratio between the two isomers: trans (E) [1, 6]: not detected
- ratio between the two isomers: cis (Z) [1, 7]: ≥ 99%
- ratio between the two isomers: trans (E) [1, 7]: not detected
- isomer present in the dark ([1]; in the dark, at benchtop conditions): fully converted into the Z inactive isomer
- E to Z back-isomerization ([1]; irradiation at ≥ 500 nm): full back-isomerization to the Z inactive form
- E to Z isomerization ([2]; 90 W EPV halogen lamp (600-700 nm), after one minute irradiation): full conversion
- E to Z isomerization ([2]; 590 nm LED, over 1 h irradiation): quantitative conversion to the Z isomer
- half-life for relaxation in the dark t1/2 ([2]; dark conditions, PBS 0.01M, 25°C): 3.2 h
- resistance to several cycles of illumination (photofatigue) ([2]; several cycles of illumination): without degradation or loss in photochromic properties; also recorded: without loss in absorption or degradation
- activity at 30 µM ([3]; spontaneously firing neurons, without blue light (Fig 2B: 500 nm), P > 0.05, mean ± SD, read-out: frequency of the action potentials generation, % from control): 72 ± 5%
- activity at 30 µM ([3]; under blue light (400 nm) illumination, P < 0.01, n=4, mean ± SD, read-out: frequency of the action potentials generation (firing), % from control): 28 ± 13%
- distance swum ([4]; 1 µM, after the third illumination with blue light (420 nm)): significant increase of the distance swum
- swimming distances ([4]; 10 µM, average of all green (500 nm) periods): slightly increased
- swimming activity ([4]; 10 µM, under blue light (420 nm)): increasing the activity of the larvae
- swimming activity ([4]; 10 µM, under green illumination (500 nm)): returning to control levels
- swimming activity ([4]; 50 µM, first blue light (420 nm) illumination periods, effect reduced with consecutive blue illumination): significantly hyperactive
- signs of toxicity or distress in the larvae ([4]; 1-50 µM, 7 dpf zebrafish larvae): No signs of toxicity or distress
- swimming distances ([4]; all concentrations (1, 10, 50 µM), green light (500 nm), each period compared individually to control): did not alter significantly the swimming distances
- effect on swimming behaviour in the dark ([4]; first 20 minutes of the experiment, full darkness, 7 dpf larvae): no effects
- hyperactivity of treated larvae ([4]; illumination with warm white light (halogen lamp), all treated groups): blocked the hyperactivity
